Legend:
E. coli [1] = test: MIC in the presence of a fixed concentration (2 μg/mL) of Rifampicin; assay type: cell-based, Escherichia coli; settings: Rifampicin 2 μg/mL, Table 5D
K. pneumoniae [2] = test: as above; assay type: cell-based, Klebsiella pneumoniae; settings: Rifampicin 2 μg/mL, Table 5D
Procedure: (§1) The inoculum was prepared by making a direct suspension of isolated colonies (selected from an 18-24 hour Mueller-Hinton agar plate) adjusted to the 0.5 McFarland standard. […] The assays were performed in duplicate. […] In cases where the duplicate values varied by less than 2-fold, the lower of the two values is reported. If a variation of greater than 2-fold was observed, the assay was considered non-valid. Several of the compounds were subjected to multiple tests, and where this is the case, the MIC reflects the modal value obtained.

A. baumannii [3] = test: MIC in the presence of […] of rifampicin; assay type: cell-based, Acinetobacter baumannii; settings: for MIC in combination with Rifampicin, A. baumannii ATCC BAA-747: A. baumannii ATCC BAA-747, Table 5D; for MIC in combination with Rifampicin, A. baumannii NCTC 13424: A. baumannii NCTC 13424, Table 5D
Procedure: as §1

E. coli [4] = settings: absence of a second agent, Table 6B
K. pneumoniae [5] = settings: absence of a second agent, Table 6B
P. aeruginosa = settings: absence of a second agent, Table 6B
A. baumannii [6] = settings: absence of a second agent, Table 6B
[7] = system: E. coli strains with elevated MICs to Polymyxin B; test: MIC against strains with elevated MICs to Polymyxin B; assay type: cell-based, Escherichia coli; settings: Table 6D
Method in brief: (§2)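 Reported MIC is the lower of duplicates agreeing within 2-fold, or the mode where compounds were tested repeatedly. Assays with greater than 2-fold duplicate variation were rejected. Colonies grown 18-24 hours on Mueller-Hinton agar were suspended to 0.5 McFarland as inoculum.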

[8] = system: K. pneumoniae strains with elevated MICs to Polymyxin B; test: as above; assay type: cell-based, Klebsiella pneumoniae; settings: Table 6D
Method in brief: as §2

[9] = system: P. aeruginosa strains with elevated MICs to Polymyxin B; test: as above; assay type: cell-based, Pseudomonas aeruginosa; settings: Table 6D
Method in brief: as §2

[10] = system: A. baumanii strains with elevated MICs to Polymyxin B; test: as above; assay type: cell-based, Acinetobacter baumannii; settings: Table 6D
Method in brief: as §2

Substance	MIC in combination with Rifampicin, E. coli ATCC 25922 (E. coli [1])	MIC in combination with Rifampicin, K. pneumoniae ATCC 4352 (K. pneumoniae [2])	MIC in combination with Rifampicin, K. pneumoniae ATCC BAA-2146 (K. pneumoniae [2])	MIC in combination with Rifampicin, A. baumannii ATCC BAA-747 (A. baumannii [3])	MIC in combination with Rifampicin, A. baumannii NCTC 13424 (A. baumannii [3])	MIC, E. coli ATCC 25922 (E. coli [4])	MIC, E. coli NCTC 13441 (E. coli [4])	MIC, K. pneumoniae ATCC 4352 (K. pneumoniae [5])	MIC, K. pneumoniae ATCC BAA-2146 (K. pneumoniae [5])	MIC, P. aeruginosa ATCC 27853 (P. aeruginosa)	MIC, P. aeruginosa CCUG 59347 (P. aeruginosa)	MIC, A. baumannii ATCC BAA-747 (A. baumannii [6])	MIC, A. baumannii NCTC 13424 (A. baumannii [6])	also measured
(5-Phenyl-piperidine)- 3-carbonyl polymyxin B nonapeptide [Example D8]	≤0.015 micrograms/mL	0.03 micrograms/mL	0.06 micrograms/mL	0.03 micrograms/mL	≤0.015 micrograms/mL	0.125 micrograms/mL	0.25 micrograms/mL	0.125 micrograms/mL	0.5 micrograms/mL	0.5 micrograms/mL	1 micrograms/mL	0.25 micrograms/mL	0.5 micrograms/mL	
(trans-5-cyclohexyl- piperidine)-3-carbonyl polymyxin B nonapeptide [Example D12]	0.06 micrograms/mL	0.125 micrograms/mL	0.25 micrograms/mL	0.5 micrograms/mL	0.03 micrograms/mL	>8 micrograms/mL	>8 micrograms/mL	>8 micrograms/mL	>8 micrograms/mL	1 micrograms/mL	4 micrograms/mL	>8 micrograms/mL	>8 micrograms/mL	MIC in combination with Rifampicin, E. coli NCTC 13441 (E. coli [1]; E. coli NCTC 13441): 0.25 micrograms/mL
4-octylpiperidine-3- carbonyl polymyxin B nonapeptide [Example D35]						1 micrograms/mL	1 micrograms/mL	2 micrograms/mL	2 micrograms/mL	1 micrograms/mL	1 micrograms/mL	2 micrograms/mL	1 micrograms/mL	MIC E. coli 058 ([7]; strain 058, elevated MIC to Polymyxin B): 1 micrograms/mL; MIC E. coli 059 ([7]; strain 059, elevated MIC to Polymyxin B): 0.5 micrograms/mL; MIC E. coli 060 ([7]; strain 060, elevated MIC to Polymyxin B): 2 micrograms/mL; MIC E. coli 061 ([7]; strain 061, elevated MIC to Polymyxin B): 4 micrograms/mL; MIC K. pneumoniae 062 ([8]; strain 062, elevated MIC to Polymyxin B): 1 micrograms/mL; MIC K. pneumoniae 063 ([8]; strain 063, elevated MIC to Polymyxin B): 2 micrograms/mL; MIC K. pneumoniae 064 ([8]; strain 064, elevated MIC to Polymyxin B): 1 micrograms/mL; MIC K. pneumoniae 655 ([8]; strain 655, elevated MIC to Polymyxin B): 4 micrograms/mL; MIC P. aeruginosa 065 ([9]; strain 065, elevated MIC to Polymyxin B): 0.25 micrograms/mL; MIC P. aeruginosa 066 ([9]; strain 066, elevated MIC to Polymyxin B): 1 micrograms/mL; MIC P. aeruginosa 067 ([9]; strain 067, elevated MIC to Polymyxin B): 4 micrograms/mL; MIC A. baumannii 053 ([10]; strain 053, elevated MIC to Polymyxin B): 32 micrograms/mL; MIC A. baumannii 056 ([10]; strain 056, elevated MIC to Polymyxin B): 8 micrograms/mL; MIC A. baumannii 068 ([10]; strain 068, elevated MIC to Polymyxin B): 1 micrograms/mL; MIC A. baumannii 070 ([10]; strain 070, elevated MIC to Polymyxin B): 1 micrograms/mL

From US20210221848A1, “POLYMYXIN DERIVATIVES AND THEIR USE IN COMBINATION THERAPY TOGETHER WITH DIFFERENT ANTIBIOTICS” (priority 2014, published 2021)
